PMC12669040, “Tumour-specific STING agonist synthesis via a two-component prodrug system” (Nature Chemistry, 2025)
Values joined by “and” are separate entries in the source; they are usually repeats but may differ in a detail not shown here. Equal entries are not always repeated.

Columns and labels:
[1] = test system: THP-1 Lucia ISG cells (interferon pathway); assay: Potency test of purified dimers on THP-1 Lucia ISG reporter cells; type: cell-based, human; settings: for EC50: three biological replicates, read-out: EC50, THP-1 Lucia interferon reporter; for Raw readings: replicates 1-3, duplicate wells
Protocol: Cells were pelleted (150g, 10 min) and resuspended in the growth medium (40% conditioned) at a density of 1 × 10^6 cells ml^−1. The cell suspension was dispensed (50 µl each well) into a lidded white 96-well plate (BrandTech 781665). Test compounds or DMSO control were diluted in the growth medium and sterilized by filtering through 0.22-µm polyethersulfone (PES) membranes (Merck SLGP033RS). […] Upon cooling down to room temperature, 50 µl of reconstituted luciferase substrate (InvivoGen QUANTI-Luc) was added to each well via the injector of the plate reader (Molecular Devices SpectraMax i3x), and the luminescence output was recorded (4 s delay, 0.1 s integration). Raw signals were divided by the averaged signal of the DMSO-treated control wells and reported in relative luminescence unit (RLU). The dose–response curve of each replicate was fitted individually using the standard 4PL model (GraphPad Prism). The EC50 value of each compound was averaged from three independent experiments and reported as mean ± s.e.m.

[2] = test system: Hs578T xenografts; assay: Hs578T zebrafish xenograft model; settings: for 2dpi phagocytosis: individual larvae; for M1 (M1/M2) / M2 (M1/M2) / Caspase-3 / TAM / Tumor Size: replicate values; for apoptosis (activated Caspase 3) in xenografts: 4 dpi, MSA2 15 μM, SC2S 0.62 μM, β-GlcA-N1/E4 20 μM each
[3] = Homo sapiens, THP1-Lucia ISG, 24 h

COc1cc2cc(C(=O)CCC(=O)O)sc2cc1OC [MSA2]
fold induction at 0.244141 µM ([1]; Homo sapiens, THP1-Lucia ISG, 24 h, Concentration 0.244141 μM, three replicates, read-out: Processed reporter response per replicate (reading relative to DMSO)): 1.21
fold induction at 0.976563 µM ([1]; Homo sapiens, THP1-Lucia ISG, 24 h, Concentration 0.976563 μM, three replicates, read-out: Processed reporter response per replicate (reading relative to DMSO)): 1.26
fold induction at 1.95312 µM ([1]; Homo sapiens, THP1-Lucia ISG, 24 h, Concentration 1.95312 μM, three replicates, read-out: Processed reporter response per replicate (reading relative to DMSO)): 0.95
fold induction at 3.90625 µM ([1]; Homo sapiens, THP1-Lucia ISG, 24 h, Concentration 3.90625 μM, three replicates, read-out: Processed reporter response per replicate (reading relative to DMSO)): 1.7
fold induction at 15.625 µM ([1]; Homo sapiens, THP1-Lucia ISG, 24 h, Concentration 15.625 μM, three replicates, read-out: Processed reporter response per replicate (reading relative to DMSO)): 316
fold induction at 31.25 µM ([1]; Homo sapiens, THP1-Lucia ISG, 24 h, Concentration 31.25 μM, three replicates, read-out: Processed reporter response per replicate (reading relative to DMSO)): 499
fold induction at 62.5 µM ([1]; Homo sapiens, THP1-Lucia ISG, 24 h, Concentration 62.5 μM, three replicates, read-out: Processed reporter response per replicate (reading relative to DMSO)): 530
fold induction at 125 µM ([1]; Homo sapiens, THP1-Lucia ISG, 24 h, Concentration 125 μM, three replicates, read-out: Processed reporter response per replicate (reading relative to DMSO)): 553
EC50 [1, 3]: 15 µM
Raw readings ([1]; MSA2 0.244141 uM): 644 RLU and 918 RLU and 1550 RLU and 217 RLU and 421 RLU
Raw readings ([1]; MSA2 0.488281 uM): 365 RLU and 407 RLU and 1564 RLU and 1732 RLU and 767 RLU and 301 RLU
Raw readings ([1]; MSA2 0.976563 uM): 533 RLU and 812 RLU and 1033 RLU and 1215 RLU and 1749 RLU and 577 RLU
Raw readings ([1]; MSA2 1.95312 uM): 558 RLU and 456 RLU and 1596 RLU and 1428 RLU and 16030 RLU and 391 RLU
Raw readings ([1]; MSA2 3.90625 uM): 737 RLU and 1083 RLU and 2552 RLU and 2286 RLU and 91800 RLU and 972 RLU
Raw readings ([1]; MSA2 7.8125 uM): 10329 RLU and 8090 RLU and 44667 RLU and 40124 RLU and 159658 RLU and 39192 RLU
Raw readings ([1]; MSA2 15.625 uM): 182029 RLU and 155323 RLU and 290195 RLU and 281155 RLU and 218467 RLU and 180884 RLU
Raw readings ([1]; MSA2 31.25 uM): 283415 RLU and 249220 RLU and 393493 RLU and 394488 RLU and 219551 RLU and 327473 RLU
Raw readings ([1]; MSA2 62.5 uM): 293238 RLU and 272508 RLU and 497557 RLU and 499850 RLU and 276937 RLU and 389453 RLU
Raw readings ([1]; MSA2 125 uM): 315598 RLU and 275220 RLU and 511799 RLU and 524474 RLU and 276606 RLU and 386234 RLU
2dpi phagocytosis ([2]; experiment 230522): 35 and 14 and 22 and 25 and 15
2dpi phagocytosis ([2]; experiment 230726): 13 and 22 and 48 and 31 and 19 and 33 and 17
M1 (M1/M2) ([2]; 2dpi): 60 and 67.5676 and 80 and 70.8333 and 69.7674 and 76.1905 and 64.1026 and 75 and 95.082 and 71.7949 and 80.6452 and 74.4681 and 72.4638 and 63.6364
M2 (M1/M2) ([2]; 2dpi): 40 and 32.4324 and 20 and 29.1667 and 30.2326 and 23.8095 and 35.8974 and 25 and 4.918 and 28.2051 and 19.3548 and 25.5319 and 27.5362 and 36.3636
apoptosis (activated Caspase 3) in xenografts [2]: significantly induced apoptosis
M1 (M1/M2) ([2]; 4dpi): 35.7143 and 18.1818 and 40 (2×) and 21.0526 and 50 (3×) and 20 and 60 (2×) and 61.1111 and 28.125 and 25
M2 (M1/M2) ([2]; 4dpi): 64.2857 and 81.8182 and 60 (2×) and 78.9474 and 50 (3×) and 80 and 40 (2×) and 38.8889 and 71.875 and 75
Caspase-3 ([2]; experiment 230522): 1.291 and 1.3466 and 1.247 and 1.364 and 1.32 and 1.585 and 1.384 and 1.691 and 1.403 and 2.142 and 1.383
TAM ([2]; experiment 230522): 1.785 and 1.828 and 1.882 and 4.773 and 1.144 and 1.242 and 2.18 and 1.55 and 1.171
Tumor Size ([2]; experiment 230522): 0.8654 and 0.6638 and 0.8064 and 0.8329 and 0.9735 and 0.8457 and 0.6726 and 0.8811 and 0.8231 and 0.9824 and 0.6461
Caspase-3 ([2]; experiment 230726): 1.714 and 1.239 and 2.528 and 1.801 and 0.8175 and 0.6878 and 1.986 and 0.813 and 0.7306 and 1.755
TAM ([2]; experiment 230726): 1.62 and 4.474 and 2.224 and 3.257 and 1.206 and 1.259
Tumor Size ([2]; experiment 230726): 0.8603 and 1.051 and 0.553 and 0.606 and 0.4686 and 0.6683 and 0.7425 and 0.3533 and 0.734 and 0.8296

COc1cc2sc(C(=O)CCC(=O)O)cc2cc1SCCSc1cc2cc(C(=O)CCC(=O)O)sc2cc1OC [SC2S]
fold induction at 0.048828 µM ([1]; Homo sapiens, THP1-Lucia ISG, 24 h, Concentration 0.048828 μM, three replicates, read-out: Processed reporter response per replicate (reading relative to DMSO)): 1.32
fold induction at 1.5625 µM ([1]; Homo sapiens, THP1-Lucia ISG, 24 h, Concentration 1.5625 μM, three replicates, read-out: Processed reporter response per replicate (reading relative to DMSO)): 332
fold induction at 3.125 µM ([1]; Homo sapiens, THP1-Lucia ISG, 24 h, Concentration 3.125 μM, three replicates, read-out: Processed reporter response per replicate (reading relative to DMSO)): 425
fold induction at 6.25 µM ([1]; Homo sapiens, THP1-Lucia ISG, 24 h, Concentration 6.25 μM, three replicates, read-out: Processed reporter response per replicate (reading relative to DMSO)): 434
fold induction at 12.5 µM ([1]; Homo sapiens, THP1-Lucia ISG, 24 h, Concentration 12.5 μM, three replicates, read-out: Processed reporter response per replicate (reading relative to DMSO)): 407
EC50 [1, 3]: 0.71 µM
Raw readings ([1]; SC2S 0.024414 uM): 620 RLU and 583 RLU and 1367 RLU and 1519 RLU and 365 RLU and 638 RLU
Raw readings ([1]; SC2S 0.048828 uM): 577 RLU and 837 RLU and 1473 RLU and 1276 RLU and 668 RLU and 425 RLU
Raw readings ([1]; SC2S 0.097656 uM): 783 RLU and 620 RLU and 2316 RLU and 2552 RLU and 1504 RLU and 372 RLU
Raw readings ([1]; SC2S 0.195313 uM): 2302 RLU and 2526 RLU and 10005 RLU and 13263 RLU and 15158 RLU and 614 RLU
Raw readings ([1]; SC2S 0.390625 uM): 13233 RLU and 15402 RLU and 73880 RLU and 85525 RLU and 96208 RLU and 759 RLU
Raw readings ([1]; SC2S 0.78125 uM): 80951 RLU and 92499 RLU and 198651 RLU and 223105 RLU and 189225 RLU and 37417 RLU
Raw readings ([1]; SC2S 1.5625 uM): 175164 RLU and 179560 RLU and 265669 RLU and 303539 RLU and 222866 RLU and 166854 RLU
Raw readings ([1]; SC2S 3.125 uM): 222262 RLU and 231080 RLU and 301434 RLU and 333311 RLU and 245937 RLU and 322808 RLU
Raw readings ([1]; SC2S 6.25 uM): 230364 RLU and 232723 RLU and 323434 RLU and 349356 RLU and 281517 RLU and 362047 RLU
Raw readings ([1]; SC2S 12.5 uM): 216991 RLU and 217865 RLU and 313187 RLU and 335098 RLU and 238105 RLU and 315297 RLU
2dpi phagocytosis ([2]; experiment 230522): 35 and 30 and 42 and 17 and 0* and 22 and 16
2dpi phagocytosis ([2]; experiment 230726): 62 and 48 and 23 and 18 and 44 and 12 and 10 and 20
M1 (M1/M2) ([2]; 2dpi): 56.4103 and 69.5652 and 75.5556 and 67.5 and 90 and 84.6154 and 78.7234 and 82.8947 and 70.4918 and 72.549 and 65.3846 and 65 and 82.6087 and 55.5556 and 72.2222
M2 (M1/M2) ([2]; 2dpi): 43.5897 and 30.4348 and 24.4444 and 32.5 and 10 and 15.3846 and 21.2766 and 17.1053 and 29.5082 and 27.451 and 34.6154 and 35 and 17.3913 and 44.4444 and 27.7778
apoptosis (activated Caspase 3) in xenografts [2]: significantly induced apoptosis
M1 (M1/M2) ([2]; 4dpi): 36.3636 and 58.3333 (2×) and 42.8571 and 37.5 and 12.5 and 25 and 54.5455 and 41.1765 and 31.4286 and 70.3704 and 40 and 39.1304 and 37.037 and 33.3333
M2 (M1/M2) ([2]; 4dpi): 63.6364 and 41.6667 (2×) and 57.1429 and 62.5 and 87.5 and 75 and 45.4545 and 58.8235 and 68.5714 and 29.6296 and 60 and 60.8696 and 62.963 and 66.6667
Caspase-3 ([2]; experiment 230522): 1.443 and 1.289 and 1.712 and 1.324 and 1.988 and 1.517 and 1.448 and 1.484 and 1.486 and 2.204 and 2.224
TAM ([2]; experiment 230522): 2.1705 and 1.352 and 2.571 and 2.448 and 1.557 and 1.167
Tumor Size ([2]; experiment 230522): 1.033 and 0.4622 and 0.7179 and 0.9145 and 1.19 and 0.9204 and 0.6815 and 0.7277 and 0.5409 and 0.7788
Caspase-3 ([2]; experiment 230726): 1.045 and 1.374 and 1.091 and 2.171 and 0.9199 and 1.451 and 2.115
TAM ([2]; experiment 230726): 1.204 and 2.4711 and 1.9907 and 1.109 and 1.5815 and 1.362 and 3.515 and 1.246
Tumor Size ([2]; experiment 230726): 0.495 and 0.08364 and 0.7374 and 1.174 and 0.7912 and 0.9371 and 0.8603
